# Organism: Rattus norvegicus
# Experiment: Inhibition of rat microsomal SOAT assessed as reduction in cholesteryl oleate formation from oleoyl co-enzyme A at 10 uM pretreated for 15 mins followed by oleoyl co-enzyme A addition measured after 10 mins by HPTLC method relative to control
row,inhibition [%],SMILES
1,3.86,CCCCNC(=O)Nc1nc(-c2ccc(C)cc2)c(-c2ccc([N+](=O)[O-])cc2)s1
2,3.28,O=C(Nc1nc(-c2ccc(Cl)cc2)c(-c2ccc([N+](=O)[O-])cc2)s1)Nc1ccc(F)cc1F
3,3.06,CC(=O)Nc1ccc(-c2sc(NC(=O)Nc3ccc(F)cc3F)nc2-c2ccc(C)cc2)cc1
4,1.52,CCc1cccc(CC)c1NC(=O)Nc1nc(-c2ccc(C)cc2)c(-c2ccc(Cl)cc2)s1
5,32.7,CCCCNC(=O)Nc1nc(-c2ccc(C)cc2)c(-c2ccc(NS(C)(=O)=O)cc2)s1
6,3.02,CCCCNC(=O)Nc1nc(-c2ccc(Cl)cc2)c(-c2ccc([N+](=O)[O-])cc2)s1
7,3.4,COc1ccc(-c2nc(NC(=O)Nc3ccc(F)cc3F)sc2-c2ccc([N+](=O)[O-])cc2)cc1
8,12.6,Cc1nc(-c2ccc(Cl)cc2)c(-c2ccc(NC(=O)Nc3c(C(C)C)cccc3C(C)C)cc2)s1
9,3.3,CCCCNC(=O)Nc1nc(-c2ccc(F)cc2)c(-c2ccc(Cl)cc2)s1
10,1.3,Cc1nc(-c2ccc(Cl)cc2)c(-c2ccc(NC(=O)Nc3ccc(F)cc3F)cc2)s1
11,11.2,Cc1ccc(-c2nc(C)sc2-c2ccc(NC(=O)Nc3c(C(C)C)cccc3C(C)C)cc2)cc1
12,3.86,Cc1ccc(-c2nc(NC(=O)Nc3ccc(F)cc3F)sc2-c2ccc([N+](=O)[O-])cc2)cc1
13,3.59,O=C(Nc1nc(-c2ccc(F)cc2)c(-c2ccc([N+](=O)[O-])cc2)s1)Nc1ccc(F)cc1F
14,24.4,COc1cc(NC(=O)Nc2ccc(-c3sc(C)nc3-c3ccc(Cl)cc3)cc2)cc(OC)c1OC
15,13.4,Cc1ccc(-c2nc(C)sc2-c2ccc(NC(=O)Nc3ccccc3)cc2)cc1
16,18.9,CS(=O)(=O)Nc1ccc(-c2sc(NC(=O)Nc3ccc(F)cc3F)nc2-c2ccc(F)cc2)cc1
17,1.03,CCc1cccc(CC)c1NC(=O)Nc1nc(-c2ccc(C)cc2)c(-c2ccc([N+](=O)[O-])cc2)s1

row,inhibition [%],SMILES
1,5.63,CCCCNC(=O)Nc1nc(-c2ccc(Cl)cc2)c(-c2ccc(NS(C)(=O)=O)cc2)s1
2,1.58,CCc1cccc(CC)c1NC(=O)Nc1nc(-c2ccc(F)cc2)c(-c2ccc(Cl)cc2)s1
3,16.8,Cc1nc(-c2ccc(F)cc2)c(-c2ccc(NC(=O)Nc3ccccc3)cc2)s1
4,6.39,CS(=O)(=O)Nc1ccc(-c2sc(NC(=O)Nc3ccc(F)cc3F)nc2-c2ccc(Cl)cc2)cc1
5,22.3,COc1ccc(-c2nc(C)sc2-c2ccc(NC(=O)Nc3ccc(F)cc3F)cc2)cc1
6,2.17,Cc1ccc(-c2nc(NC(=O)Nc3ccc(F)cc3F)sc2-c2ccc(NS(C)(=O)=O)cc2)cc1
7,3.03,O=C(Nc1nc(-c2ccccc2)c(-c2ccccc2)s1)Nc1ccc(F)cc1F
8,6.88,Cc1nc(-c2ccc(Cl)cc2)c(-c2ccc(NC(=O)Nc3ccccc3)cc2)s1
9,5.23,CCCCNC(=O)Nc1nc(-c2ccc(C)cc2)c(-c2ccc(NC(C)=O)cc2)s1
10,3.75,CCCCNC(=O)Nc1nc(-c2ccc(Cl)cc2)c(-c2ccc(NC(C)=O)cc2)s1
11,26.6,Cc1ccc(-c2nc(C)sc2-c2ccc(NC(=O)Nc3ccc(F)cc3F)cc2)cc1
12,2.03,CC(=O)Nc1ccc(-c2sc(NC(=O)Nc3ccc(F)cc3F)nc2-c2ccc(Cl)cc2)cc1
13,9.58,Cc1ccc(-c2nc(NC(=O)Nc3ccccc3)sc2-c2ccc(Cl)cc2)cc1
14,3.93,Cc1ccc(-c2nc(NC(=O)Nc3ccc(F)cc3F)sc2-c2ccc(Cl)cc2)cc1
15,23.3,CC(=O)Nc1ccc(-c2sc(NC(=O)Nc3ccc(F)cc3F)nc2-c2ccc(F)cc2)cc1
16,2.98,COc1ccc(-c2nc(NC(=O)Nc3ccc(F)cc3F)sc2-c2ccc(Cl)cc2)cc1

# The remaining lines, values behind:
row,SMILES,inhibition [%]
1,CCCCCCCNC(=O)Nc1nc(-c2ccc(OC)cc2)c(-c2ccc([N+](=O)[O-])cc2)s1,1.52
2,CCCCNC(=O)Nc1nc(-c2ccc(OC)cc2)c(-c2ccc(NC(C)C)cc2)s1,4.67
3,CCCCNC(=O)Nc1nc(-c2ccc(F)cc2)c(-c2ccc(NC(C)=O)cc2)s1,15.4
4,CCCCCCCCCCCCNC(=O)Nc1nc(-c2ccc(Cl)cc2)c(-c2ccc([N+](=O)[O-])cc2)s1,1.77
5,CCCCCCCCCCCCNC(=O)Nc1nc(-c2ccc(F)cc2)c(-c2ccc(Cl)cc2)s1,1.91
6,CCCCCCCCCCCCNc1ccc(-c2sc(NC(=O)NCCCC)nc2-c2ccc(OC)cc2)cc1,3.36
7,CCCCCCCNC(=O)Nc1ccc(-c2nonc2-c2ccc(C)cc2)cc1,18.6
8,O=C(Nc1ccc(-c2nonc2-c2ccc(Cl)cc2)cc1)Nc1ccc(F)cc1F,21.2
9,CCc1cccc(CC)c1NC(=O)Nc1ccc(-c2nonc2-c2ccc(C)cc2)cc1,0.34
10,Cc1ccc(-c2nc(C)sc2-c2ccc(NC(=O)NCCN3CCOCC3)cc2)cc1,19
11,CCCCNC(=O)Nc1ccc(-c2nonc2-c2ccc(Cl)cc2)cc1,23
12,O=C(Nc1ccc(-c2nonc2-c2ccc(F)cc2)cc1)Nc1ccc(F)cc1F,47.1
13,COc1ccc(-c2nc(C)sc2-c2ccc(NC(=O)NCCN3CCOCC3)cc2)cc1,21.5
14,Cc1nc(-c2ccc(F)cc2)c(-c2ccc(NC(=O)NCCN3CCOCC3)cc2)s1,29.3
15,CCCCCCCNC(=O)Nc1ccc(-c2sc(C)nc2-c2ccc(OC)cc2)cc1,22.2
16,CCCCNC(=O)Nc1nc(-c2ccc(F)cc2)c(-c2ccc(NS(C)(=O)=O)cc2)s1,0.43
17,CCCCNC(=O)Nc1nc(-c2ccc(OC)cc2)c(-c2ccc([N+](=O)[O-])cc2)s1,3.12

row,SMILES,inhibition [%]
1,COc1ccc(-c2nc(C)sc2-c2ccc(NC(=O)Nc3c(C(C)C)cccc3C(C)C)cc2)cc1,30.1
2,CCCCNC(=O)Nc1nc(-c2ccc(OC)cc2)c(-c2ccc(NS(C)(=O)=O)cc2)s1,5.45
3,CCCCCCCCCCCCNc1ccc(-c2sc(NC(=O)Nc3ccc(F)cc3F)nc2-c2ccc(OC)cc2)cc1,1.77
4,CCCCNC(=O)Nc1nc(-c2ccc(F)cc2)c(-c2ccc([N+](=O)[O-])cc2)s1,2.98
5,COc1ccc(-c2nc(C)sc2-c2ccc(NC(=O)Nc3cc(OC)c(OC)c(OC)c3)cc2)cc1,25.4
6,CCCCCCCCCCCCNC(=O)Nc1ccc(-c2sc(C)nc2-c2ccc(OC)cc2)cc1,27.5
7,CCCCNC(=O)Nc1ccc(-c2nonc2-c2ccc(C)cc2)cc1,2.83
8,CCCCCCCNC(=O)Nc1ccc(-c2sc(C)nc2-c2ccc(C)cc2)cc1,33.4
9,CCCCCCCNC(=O)Nc1ccc(-c2nonc2-c2ccc(F)cc2)cc1,30.9
10,CCCCCCCCCCCCNC(=O)Nc1ccc(-c2sc(C)nc2-c2ccc(Cl)cc2)cc1,5.75
11,CCCCCCCCCCCCNC(=O)Nc1nc(-c2ccccc2)c(-c2ccccc2)s1,1.2
12,CCCCNC(=O)Nc1nc(-c2ccccc2)c(-c2ccccc2)s1,2.56
13,COc1cc(NC(=O)Nc2ccc(-c3sc(C)nc3-c3ccc(C)cc3)cc2)cc(OC)c1OC,21.9
14,CCc1cccc(CC)c1NC(=O)Nc1ccc(-c2nonc2-c2ccc(Cl)cc2)cc1,8.25
15,CCCCCCCNC(=O)Nc1ccc(-c2nonc2-c2ccc(Cl)cc2)cc1,4.3
16,CCCCNC(=O)Nc1ccc(-c2sc(C)nc2-c2ccc(OC)cc2)cc1,40
17,CCCCCCCCCCCCNC(=O)Nc1ccc(-c2nonc2-c2ccc(Cl)cc2)cc1,18.5

# Source: ChEMBL document CHEMBL4049391, “Vicinal diaryl azole-based urea derivatives as potential cholesterol lowering agents acting through inhibition of SOAT enzymes” (Eur J Med Chem, 2017)
